# Patent publication US20210268075A1, “PHARMACEUTICAL COMPOSITION AND METHOD OF TREATMENT USING SERRATIOPEPTIDASE, MANNOSE OR ITS DERIVATIVE, AND OPTIONALLY ANTINFECTION AGENTS” (priority 2020, published 2021)
# Tested on: E. Coli ATCC 8739
# Test: In vitro suppression of bacterial growth from a biofilm on a plastic thread (transmittance of medium at 590 nm)
# Assay type: cell-based
# Details: 7 hours with Solution F/P, higher transmittance = less bacterial growth
# Description: 1 ml of Stock E. Coli ATCC 8739 (Culture Count 10×10^8 CFU/ml) was diluted to 10 ml with buffered peptone water with NaCl. The 1 ml of resulting culture (10×10^7 CFU/ml) was diluted to 10 ml with buffered peptone water with NaCl to make E. Coli Culture (10×10^6 CFU/ml)
# On first day 6 PM, Five (5) sterile test tubes were added with 50 ml of sterile Soybean Casein Digest Medium. These medium were inoculated with 1 ml of E. Coli culture (10×10^6 CFU/ml @ 6 PM. A thin plastic thread (0.1 mm OD) of the same length were suspended from the middle of all 5 test tubes and keep in overnight (17 hours) at 30° C.-35° C. • 2. On second day 11 AM, another Five (5) sterile test tubes were added with 50 ml of sterile Soybean Casein Digest Medium and 500 mg of Glucose. • a. 1 ml of Solution F (D-mannose solution) was added to test tube 1. • b. 1 ml of Solution P (Serrapeptidase solution) was added to test tube 2. • c. 1 ml of Solution F (D-Mannose solution) and 1 ml of Solution P (Serrapeptidase solution) was added to test tube 3.
# The thin plastic thread was transferred from old test tube to new test tube on second day 11 AM. All 5 test tubes were kept at 30° C.-35° C. for 7 hours. • 3. On second day 6 PM, another Five (5) sterile test tubes were added with 50 ml of Sterile Soybean Casein Digest Medium. Transfer the thin plastic thread from old test tube to new test tube on second day at 6 PM. […]
SMILES,"transmittance of test tube medium at 590 nm (Procedure 2: thick plastic thread (0.5 mm OD), then 1 ml Solution A overnight (17 hours) at 30-35° C.)","transmittance of test tube medium at 590 nm (Procedure 1: thin plastic thread (0.1 mm OD), overnight in fresh medium, then 1 ml Solution A^dil for 7 hours at 30-35° C.)"
"O=C1CN(/N=C/c2ccc([N+](=O)[O-])o2)C(=O)N1 [A (Antibiotic), Nitrofurantoin Anhydrous]",6.9,
"O=C1CN(/N=C/c2ccc([N+](=O)[O-])o2)C(=O)N1 [A^dil (Diluted Antibiotic), Nitrofurantoin Anhydrous]",,8.4
